This is an account of results in the NIST ThermoML archive (doi:10.1021/acs.jced.8b01110).

The structures appear in SMILES notation. Numbers after ± are expanded uncertainties.

Data set [1] is described as follows: refractive index (Na D-line) (dimensionless); wn = mass fraction of the nth substance listed. The settings on record: 313.15 K, 88.4 kPa, Liquid, Standard Abbe refractometry.
The nature of data set [2]: wn = mass fraction of the nth substance listed. The settings on record: 313.15 K, 88.4 kPa, Liquid; for viscosity: Capillary tube (Ostwald / Ubbelohde) method; for mass density: Pycnometric method.

Turning to `O=[N+]([O-])[O-].[Na+]` [sodium nitrate] + O, the refractive index (commonly a measure of how strongly the sample bends light) in data set [1] (w1 = 0.5082) was 1.39164 ± 0.00086. For the same compound, in data set [2] (w1 = 0.5082), the viscosity (as a rule, the resistance of a fluid to flow) is recorded as 2.14 ± 0.43 mPa·s and the mass density (usually the mass of a sample divided by its volume) was determined as 1408.4 ± 10 kg/m3.
`O=S(=O)([O-])[O-].[Na+].[Na+]` [sodium sulfate] + O: the refractive index in data set [1] (w1 = 0.3289) turned out to be 1.37791 ± 0.00085. In addition, in data set [2] (w1 = 0.3289), the viscosity is on record as 2.703 ± 0.54 mPa·s and the mass density is on record as 1317 ± 10 kg/m3.
